Reference: patent US6384077B1, “Highly purified EPA for treatment of schizophrenia and related disorders” (Laxdale Limited, priority 1999, dated 2002)

Experiments:
[1] = target: human brain enzyme FACL-4 (Homo sapiens, UniProt O60488); conditions: cited from earlier work
phospholipase A2 = conditions: cited from earlier work
tardive dyskinesia = assay: patients with neuroleptic-induced tardive dyskinesia treated with EPA; format: in vivo, human; conditions: several patients
From the text: The typical neuroleptics in some patients produce a distressing condition called tardive dyskinesia. […] The patient experiences uncontrollable twitching and other movements. These can affect any part of the body but commonly affect the face where they are particularly distressing. Facial twitches and movements, including protrusions and uncontrollable movements of the tongue occur. […] Movements have become substantially less and in some patients have disappeared completely.

[2] = system: patients who had schizophrenia; assay: randomised, placebo-controlled study of ethyl-EPA in clozapine-treated patients with schizophrenia (PANSS, MADRS); format: in vivo, human; conditions: 12 weeks, patients on clozapine
From the text: Although the case reports of the effects of ethyl-EPA are convincing and in some cases dramatic, unequivocal proof of its efficacy must come from randomised, placebo-controlled trials. We therefore set up a randomised, placebo-controlled study of EPA in 34 patients who had schizophrenia according to the criteria set out in the American Psychiatric Association's Diagnostic and Statistical Manual of Mental Disorders (4th edition, DSM-IV). All of these patients were being treated with clozapine drugs but all remained seriously ill, with schizophrenic symptoms. Like many schizophrenics, some of the patients were also depressed. All were assessed at baseline and after 12 weeks using the Positive and Negative Symptom Scale for Schizophrenia (PANSS) and the Montgomery-Asberg Depression Rating Scale (MADRS). After giving informed consent, all the patients were randomised on a double blind basis to one of three groups: placebo, or 1 g or 2 g of ethyl-EPA per day in the form of 0.5 g capsules. Placebo and EPA capsules were indistinguishable from one another in appearance. All the patients improved to some degree so all the changes are percentage improvements

schizophrenia [3] = assay: case history: schizophrenia, ethyl-EPA added to haloperidol; format: in vivo, human; conditions: person
From the text: A person had become ill with schizophrenia. They had florid hallucinations and paranoia, but also withdrew themself from most of their friendships and lived alone. […] They lived alone, ceased to communicate with most of their friends, and went around to town alone and muttering to […]. Their psychiatrist heard about ethyl-EPA and decided to try it in addition to the standard drug. After eight weeks on treatment with 4 g/day their outlook was transformed. […] They were even persuaded to go on holiday with their family where they enjoyed themself and made new friends. The EPA therefore reversed the extreme withdrawal which appeared to have been exaggerated by haloperidol.

[4] = system: attention deficit hyperactivity disorder (ADHD); assay: case report: child with ADHD; format: in vivo, human; conditions: before ethyl-EPA
From the text: Attention deficit hyperactivity disorder (ADHD): ADHD and closely related conditions like attention deficit disorder and conduct disorders are commonly found in children. Occasionally they may be successfully treated by behaviour modification and other psychological techniques or by careful attention to diet. However, in most cases, paradoxical treatment with one of the stimulant drugs related in their action to amphetamine is required. Methylphenidate and dextroamphetamine are the commonest used. A child with serious ADHD since infancy was driving their parents to distraction. […] The parents were concerned about the long term consequences of stimulant drugs. The child was therefore tried on two capsules of pure ethyl-EPA per day. […] The child became less tense and irritable, less hyperactive, more open to reasoned discussion and enormously less disruptive both at home and school. Even when their methylphenidate was stopped, their behaviour remained improved.

[5] = system: schizophrenia, drug-induced obesity; format: in vivo, human; conditions: in vivo
From the text: Obesity is another common side effect of antipsychotropic drugs. In this respect some of the newer drugs like olanzapine frequently seem to be even worse offenders than the typical neuroleptics. […] They preferred the olanzapine but it still left their withdrawn and unable to communicate normally with friends or family. To their distress it caused them to put on over 10 kg in weight. Their doctor decided to test ethyl-EPA in addition to olanzapine.

schizophrenia [6] = assay: case history: schizophrenia, E-EPA added to clozapine; format: in vivo, human; conditions: patient not responding to typical neuroleptics; clozapine up to 900 mg/day
From the text: This mechanism is thought to be responsible for their rapid effects on the so-called “positive” symptoms of schizophrenia (such as hallucinations, delusions and thought disorder). […] The D2 blocking action is also responsible for many of the adverse effects of these drugs, which include extrapyramidal movement disorders, excess prolactin secretion, and tardive dyskinesias. Examples of widely used drugs in this class include chlorpromazine, thioridazine, haloperidol, pimozide, flupenthixol and sulpiride.
These may include blockade of one or more of the other dopamine receptors such as D1, D3 or D4, and also usually including blockade of one or more classes of serotonin receptors. […] They may also have actions at other receptors, including histamine, glutamate and acetyl choline receptors.
The patient was treated with clozapine, eventually reaching a maximum dose of 900 mg/day.
E-EPA in a dose of 2 g/day was then administered in addition to clozapine.

Sequence of human brain enzyme FACL-4 (O60488 whole entry): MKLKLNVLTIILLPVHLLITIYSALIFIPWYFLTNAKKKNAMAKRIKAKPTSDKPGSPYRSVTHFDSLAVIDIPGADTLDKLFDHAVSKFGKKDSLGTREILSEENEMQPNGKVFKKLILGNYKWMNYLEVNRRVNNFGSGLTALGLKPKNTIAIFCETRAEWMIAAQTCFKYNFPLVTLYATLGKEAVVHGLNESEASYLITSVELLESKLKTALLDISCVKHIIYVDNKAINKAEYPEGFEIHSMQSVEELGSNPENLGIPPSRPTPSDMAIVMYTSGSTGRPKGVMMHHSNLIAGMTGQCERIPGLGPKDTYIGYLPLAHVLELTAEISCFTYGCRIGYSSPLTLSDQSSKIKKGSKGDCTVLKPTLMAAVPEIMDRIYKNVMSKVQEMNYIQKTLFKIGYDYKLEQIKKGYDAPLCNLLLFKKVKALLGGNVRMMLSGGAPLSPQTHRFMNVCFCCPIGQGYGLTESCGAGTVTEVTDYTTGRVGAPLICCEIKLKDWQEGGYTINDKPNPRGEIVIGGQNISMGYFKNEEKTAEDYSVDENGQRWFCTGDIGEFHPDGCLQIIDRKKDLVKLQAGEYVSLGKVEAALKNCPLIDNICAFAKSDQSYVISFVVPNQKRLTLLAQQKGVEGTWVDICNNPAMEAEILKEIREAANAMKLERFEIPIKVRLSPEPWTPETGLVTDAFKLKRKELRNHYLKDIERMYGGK

Structure (SMILES): CCCCC/C=C\C/C=C\C/C=C\C/C=C\CCCC(=O)O [AA, arachidonic acid, reference compound]
- FACL-4 activity for AA relative to DHA ([1]; relative to DHA): more than twice as great as for DHA

Structure (SMILES): CC/C=C\C/C=C\C/C=C\C/C=C\C/C=C\CCCC(=O)O [EPA, all cis (or all z) 5,8, 11, 14, 17-eicosapentaenoic acid]
- affinity for FACL-4 [1]: unusually high affinity
- FACL-4 activity for EPA, greater than for AA ([1]; relative to AA): 50%
- inhibition of phospholipase A2 (phospholipase A2): known to inhibit phospholipase A2
- tardive dyskinesia (tardive dyskinesia): substantial relief from tardive dyskinesia
- MADRS, percentage improvement from baseline ([2]; 1 g ethyl-EPA per day): 35.7%
- Total PANSS, percentage improvement from baseline ([2]; 1 g ethyl-EPA per day): 18.8%
- negative PANSS, percentage improvement from baseline ([2]; 1 g ethyl-EPA per day): 22.7%
- positive PANSS, percentage improvement from baseline ([2]; 1 g ethyl-EPA per day): 20.0%
- MADRS, percentage improvement from baseline ([2]; 2 g ethyl-EPA per day): 35.7%
- Total PANSS, percentage improvement from baseline ([2]; 2 g ethyl-EPA per day): 17.1%
- negative PANSS, percentage improvement from baseline ([2]; 2 g ethyl-EPA per day): 22.7%
- positive PANSS, percentage improvement from baseline ([2]; 2 g ethyl-EPA per day): 25.0%

Structure (SMILES): O=C(CCCN1CCC(O)(c2ccc(Cl)cc2)CC1)c1ccc(F)cc1 [haloperidol, reference compound]
- effect on hallucinations, drug alone (schizophrenia [3]): stopped most of the hallucinations

Structure (SMILES): COC(=O)C(c1ccccc1)C1CCCCN1 (stereo not drawn) [methylphenidate, reference compound]
- control of ADHD [4]: only partially controlled

Structure (SMILES): Cc1cc2c(s1)Nc1ccccc1N=C2N1CCN(C)CC1 [olanzapine, reference compound]
- weight put on [5]: over 10 kg

Structure (SMILES): OCCOCCN1CCN(C2=Nc3ccccc3Sc3ccccc32)CC1 [quetiapine, reference compound]
- clinical response to neuroleptic alone (schizophrenia [6]): no substantial benefit

Structure (SMILES): Cc1nc2n(c(=O)c1CCN1CCC(c3noc4cc(F)ccc34)CC1)CCCC2 [risperidone, reference compound]
- clinical response to neuroleptic alone (schizophrenia [6]): no substantial benefit
